Test results as given in patent US20250163043A1 (TRANSTHERA SCIENCES (NANJING), INC., priority 2021, published 2025).

These molecules were tested against CDK9/CycT1 (Homo sapiens, UniProt P50750) (assay: ADP-Glo kinase assay on CDK enzymatic activity, CDK9/CycT1). Conditions: 10 concentrations from 10 μM, 4-fold, 60 min room temperature.
Format: biochemical
Description: Test samples: the compounds of the present invention, having structures shown above.
ADP-Glo Kinase Assay (ADP-Glo kinase kit), DMSO (dimethyl sulfoxide), CDK9/CycT1 (cyclin-dependent kinase 9/cyclin T1), CDK tide (cyclin-dependent kinase substrate peptide fragments), CDK1/CycE1 (cyclin-dependent kinase 1/cyclin E1), CDK2/CycA2 (cyclin-dependent kinase 2/cyclin A2), CDK3/CycE1 (cyclin-dependent kinase 3/cyclin E1), CDK4/CycD3 (cyclin-dependent kinase 4/cyclin D3), CDK5/p25NCK (cyclin-dependent kinase 5/p25), and AZD 4573.
A 384-well white plate, a 96-well plate, a microplate oscillator, a centrifuge, and a microplate reader.
The compounds were dissolved in DMSO and diluted 4-fold in the 96-well plate to obtain stock solutions with 10 concentration gradients, and added into a 384-well plate system to obtain a series of 10 concentration gradients of compound solutions with final concentrations of 10 μM starting and 4-fold gradient decreasing. 1 μM AZD4573 was used as compound positive control (PC) and 0.5% DMSO as solvent vehicle control (VC), ten duplicated wells each for PC and VC.
1 μL of compound solution and 2 μL of 2× kinase solution were transferred to each well, and the plate was centrifuged at 1000 g for 30 s and left at room temperature for 10 min. A mixture of 2× substrate and ATP was prepared in 1× kinase buffer. The reaction was started after adding 2 μL of substrate and ATP into the plate. The plate was centrifuged at 1000 g for 30 s. The assay plate was closed and left at room temperature for 60 min. The reaction system was added with 4 μL of ADP Glo reagent, centrifuged at 1000 rpm for 1 min, and incubated at room temperature for 40 min. The reaction system was added with 8 μL of kinase assay reagent, centrifuged at 1000 rpm for 1 min and incubated at room temperature for 40 min. The […] was read on Biotek.
The inhibition rate was calculated according to the following formula: […]
Lumcmpd: compound fluorescence reading; Lumpositive: average value of the fluorescence reading of positive compound control; Lumvehicle: average value of the fluorescence reading of solvent vehicle control.
IC50 values were fitted using GraphPad 7.0 based on inhibition rates of compounds at different concentrations.

Chain of CDK9/CycT1 (P50750 whole entry): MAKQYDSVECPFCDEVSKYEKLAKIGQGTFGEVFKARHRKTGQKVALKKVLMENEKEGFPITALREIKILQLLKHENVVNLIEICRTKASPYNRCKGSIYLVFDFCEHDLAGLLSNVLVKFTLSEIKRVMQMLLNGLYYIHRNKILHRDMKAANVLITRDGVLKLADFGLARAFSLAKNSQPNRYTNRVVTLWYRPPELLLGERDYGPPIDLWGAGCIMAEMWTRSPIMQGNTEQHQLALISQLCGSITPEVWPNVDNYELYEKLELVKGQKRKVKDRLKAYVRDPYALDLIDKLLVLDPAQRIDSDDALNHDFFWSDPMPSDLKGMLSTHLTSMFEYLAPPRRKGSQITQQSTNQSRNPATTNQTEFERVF
Chain of CDK9/CycT1 (O60563 whole entry partner): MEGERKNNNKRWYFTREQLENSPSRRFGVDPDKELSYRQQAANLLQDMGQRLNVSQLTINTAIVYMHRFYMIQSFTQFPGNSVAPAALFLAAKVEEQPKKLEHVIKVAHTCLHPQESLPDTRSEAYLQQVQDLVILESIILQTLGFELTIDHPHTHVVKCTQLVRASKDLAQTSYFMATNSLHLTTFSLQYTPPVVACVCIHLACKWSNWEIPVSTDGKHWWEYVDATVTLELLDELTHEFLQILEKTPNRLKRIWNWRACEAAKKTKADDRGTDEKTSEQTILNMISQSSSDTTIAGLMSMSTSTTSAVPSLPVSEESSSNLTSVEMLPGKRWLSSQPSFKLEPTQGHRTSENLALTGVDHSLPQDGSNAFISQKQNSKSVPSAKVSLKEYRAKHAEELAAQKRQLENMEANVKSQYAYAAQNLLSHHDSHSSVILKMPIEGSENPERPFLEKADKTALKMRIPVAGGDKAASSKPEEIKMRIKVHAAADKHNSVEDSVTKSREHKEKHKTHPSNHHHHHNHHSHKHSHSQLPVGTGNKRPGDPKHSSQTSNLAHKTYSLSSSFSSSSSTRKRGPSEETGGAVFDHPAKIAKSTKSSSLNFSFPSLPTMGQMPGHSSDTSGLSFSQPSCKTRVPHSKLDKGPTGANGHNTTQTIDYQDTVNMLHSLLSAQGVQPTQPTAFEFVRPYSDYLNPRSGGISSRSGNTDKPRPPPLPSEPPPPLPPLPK

Compound | IC50
CC(C)Nc1nc(C#N)cc2cnc(N[C@@H]3CCNC3=O)nc12 [Compound 124, (R)-8-(isopropylamino)-2-((2-oxopyrrolidin-3-yl)amino)pyrido[3,4-d]pyrimidine-6-carbonitrile] | 26 nM
CC(C)Nc1nc(C#N)cc2cnc(N[C@H]3CCCC[C@@H]3O)cc12 [Compound 156, 7-(((1S,2S)-2-hydroxycyclohexyl)amino)-1-(isopropylamino)-2,6-naphthyridine-3-carbonitrile] | 14 nM
CC(C)Nc1nc(C#N)cc2cnc(NC3CCS(=O)(=O)CC3)nc12 [Compound 120, 2-((1,1-dioxidotetrahydro-2H-thiopyran-4-yl)amino)-8-(isopropylamino)pyrido[3,4-d]pyrimidine-6-carbonitrile] | 32 nM
CCC(CC)c1nc(C#N)cc2cnc(N[C@H]3CCCNC3)cc12 [Compound 188, (S)-1-(pentan-3-yl)-7-(piperidin-3-ylamino)-2,6-naphthyridine-3-carbonitrile] | 10 nM
N#Cc1cc2cnc(N[C@H]3CCCNC3)cc2c(NC2COC2)n1 [Compound 182, (S)-1-(oxetan-3-ylamino)-7-(piperidin-3-ylamino)-2,6-naphthyridine-3-carbonitrile] | 15 nM
CC(C)Nc1nc(C(F)F)c(C#N)c2cnc(N[C@H]3CCCNC3)nc12 [Compound 111, (S)-6-(difluoromethyl)-8-(isopropylamino)-2-(piperidin-3-ylamino)pyrido[3,4-d]pyrimidine-5-carbonitrile] | 69 nM
CSc1nc(C#N)cc2cnc(N[C@H]3CCCNC3)cc12 [Compound 192, (S)-1-(methylthio)-7-(piperidin-3-ylamino)-2,6-naphthyridine-3-carbonitrile] | 11 nM
CC(C)(C)Nc1nc(C(F)F)cc2cnc(N[C@H]3C[C@@H](N)C3)cc12 [Compound 203, N^7-((1s,3s)-3-aminocyclobutyl)-N^1-(tert-butyl)-3-(difluoromethyl)-2,6-naphthyridine-1,7-diamine] | 1 nM
CC(C)Nc1nc(C#N)cc2cnc(N[C@@H]3CCC[C@H]3N)cc12 [Compound 165, 7-(((1R,2R)-2-aminocyclopentyl)amino)-1-(isopropylamino)-2,6-naphthyridine-3-carbonitrile] | 47 nM
CC(C)Nc1nc(C#N)cc2cnc(N[C@@H]3CCCC[C@@H]3O)cc12 [Compound 161, 7-(((1R,2S)-2-hydroxycyclohexyl)amino)-1-(isopropylamino)-2,6-naphthyridine-3-carbonitrile] | 14 nM
N#Cc1cc2cnc(N[C@H]3CCCNC3)cc2c(O[C@H]2CCOC2)n1 [Compound 155, 7-(((S)-piperidin-3-yl)amino)-1-(((S)-tetrahydrofuran-3-yl)oxy)-2,6-naphthyridine-3-carbonitrile] | 33 nM
N#Cc1cc2cnc(N[C@H]3CCCNC3)cc2c(OC2CCC2)n1 [Compound 199, (S)-1-cyclobutoxy-7-(piperidin-3-ylamino)-2,6-naphthyridine-3-carbonitrile] | 4 nM
N#Cc1cc2cnc(N[C@H]3C[C@@H](O)C3)cc2c(N[C@@H]2CCOC2)n1 [Compound 176, 7-(((1s,3S)-3-hydroxycyclobutyl)amino)-1-(((R)-tetrahydrofuran-3-yl)amino)-2,6-naphthyridine-3-carbonitrile] | 3 nM
CCOc1nc(C#N)cc2cnc(N[C@H]3CCCNC3)cc12 [Compound 198, (S)-1-ethoxy-7-(piperidin-3-ylamino)-2,6-naphthyridine-3-carbonitrile] | 12 nM
CC(C)Nc1nc(C#N)cc2cnc(N[C@@H]3CCCC[C@H]3O)cc12 [Compound 159, 7-(((1R,2R)-2-hydroxycyclohexyl)amino)-1-(isopropylamino)-2,6-naphthyridine-3-carbonitrile] | 22 nM
CC(C)Nc1nc(C#N)cc2cnc(N[C@H]3CCCC[C@H]3O)cc12 [Compound 160, 7-(((1S,2R)-2-hydroxycyclohexyl)amino)-1-(isopropylamino)-2,6-naphthyridine-3-carbonitrile] | 26 nM

Other lines, results leading:

IC50 | Compound
20 nM | CC(C)Nc1nc(C#N)cc2cnc(N[C@@H]3CCCNC3)nc12 [Compound C44, (R)-8-(isopropylamino)-2-(piperidin-3-ylamino)pyrido[3,4-d]pyrimidine-6-carbonitrile]
2 nM | CO[C@H]1C[C@H](Nc2ncc3cc(C#N)nc(NC(C)C)c3n2)C1 [Compound C12, 8-(isopropylamino)-2-(((1r,3r)-3-methoxycyclobutyl)amino)pyrido[3,4-d]pyrimidine-6-carbonitrile]
2 nM | CC(C)Nc1nc(C#N)cc2cnc(N[C@H]3C[C@@]4(CCN4)C3)nc12 [Compound C37, 2-(((4r,6s)-1-azaspiro[3.3]heptan-6-yl)amino)-8-(isopropylamino)pyrido[3,4-d]pyrimidine-6-carbonitrile]
4 nM | CC(=O)N1CCN([C@H]2C[C@H](Nc3ncc4cc(C#N)nc(NC(C)C)c4n3)C2)CC1 [Compound C32, 2-(((1r,3r)-3-(4-acetylpiperazin-1-yl)cyclobutyl)amino)-8-(isopropylamino)pyrido[3,4-d]pyrimidine-6-carbonitrile]
1 nM | CC(C)Nc1nc(C#N)cc2cnc(N[C@H]3C[C@](C)(O)C3)nc12 [Compound C11, 2-(((1r,3r)-3-hydroxy-3-methylcyclobutyl)amino)-8-(isopropylamino)pyrido[3,4-d]pyrimidine-6-carbonitrile]
1 nM | CCNc1nc(C#N)cc2cnc(N[C@H]3C[C@H](NC)C3)nc12 [Compound C43, 8-(ethylamino)-2-(((1r,3r)-3-(methylamino)cyclobutyl)amino)pyrido[3,4-d]pyrimidine-6-carbonitrile]
1 nM | CC(C)(C)Nc1nc(C#N)cc2cnc(N[C@H]3C[C@](C)(N)C3)nc12 [Compound C34, 2-(((1r,3r)-3-amino-3-methylcyclobutyl)amino)-8-(tert-butylamino)pyrido[3,4-d]pyrimidine-6-carbonitrile]
5 nM | CN(C)[C@H]1CC[C@H](Nc2ncc3cc(C#N)nc(N[C@@H]4CCOC4)c3n2)CC1 [Compound C40, 2-(((1r,4R)-4-(dimethylamino)cyclohexyl)amino)-8-(((R)-tetrahydrofuran-3-yl)amino)pyrido[3,4-d]pyrimidine-6-carbonitrile]
24 nM | CCOc1nc(C#N)cc2cnc(N[C@H]3C[C@H](N)C3)nc12 [Compound C47, 2-(((1r,3r)-3-aminocyclobutyl)amino)-8-ethoxypyrido[3,4-d]pyrimidine-6-carbonitrile]
2 nM | CC(C)Nc1nc(C#N)cc2cnc(N[C@H]3C[C@@H](CN)C3)nc12 [Compound C17, 2-(((1s,3s)-3-(aminomethyl)cyclobutyl)amino)-8-(isopropylamino)pyrido[3,4-d]pyrimidine-6-carbonitrile]
20 nM | CC(C)Oc1nc(C#N)cc2cnc(N[C@H]3CCCNC3)nc12 [Compound C49, (S)-8-isopropoxy-2-(piperidin-3-ylamino)pyrido[3,4-d]pyrimidine-6-carbonitrile]
2 nM | COC[C@H](C)Nc1nc(C#N)cc2cnc(N[C@H]3C[C@H](N)C3)nc12 [Compound C42, 2-(((1r,3S)-3-aminocyclobutyl)amino)-8-(((S)-1-methoxypropan-2-yl)amino)pyrido[3,4-d]pyrimidine-6-carbonitrile]
1 nM | CCNc1nc(C#N)cc2cnc(N[C@H]3C[C@](C)(N)C3)nc12 [Compound C38, 2-(((1r,3r)-3-amino-3-methylcyclobutyl)amino)-8-(ethylamino)pyrido[3,4-d]pyrimidine-6-carbonitrile]
1 nM | N#Cc1cc2cnc(N[C@H]3C[C@H](N)C3)nc2c(N[C@@H]2CCCOC2)n1 [Compound C39, 2-(((1r,3R)-3-aminocyclobutyl)amino)-8-(((R)-tetrahydro-2H-pyran-3-yl)amino)pyrido[3,4-d]pyrimidine-6-carbonitrile]
27 nM | CC(C)Nc1nc(C#N)cc2cnc(NC3CCN(CC(=O)N(C)C)CC3)nc12 [Compound C3, 2-(4-((6-cyano-8-(isopropylamino)pyrido[3,4-d]pyrimidin-2-yl)amino)piperidin-1-yl)-N,N-dimethylacetamide]
4 nM | CC(C)Nc1nc(C#N)cc2cnc(N[C@H]3C[C@H](N4CCOCC4)C3)nc12 [Compound C21, 8-(isopropylamino)-2-(((1r,3r)-3-morpholinocyclobutyl)amino)pyrido[3,4-d]pyrimidine-6-carbonitrile]
